Publication PMC6838199 (Scientific Reports, 2019)

Key:
Experiment in all cases: E1-E2 transthioesterification assay (UbcH5a, Coomassie gel), recombinant purified E1
Type in all cases: biochemical
TbUBA1a [1] = target: T1, TbUBA1a (Trypanosoma brucei, UniProt Q57XC5)
T1 construct: gene Tb08.26A17.680; GST fusion cleaved with HRV 3C

[2] = target: T2, human UBA1 (hUBA1), ubiquitin E1 activating enzyme (Homo sapiens, UniProt P22314)
T2 construct: N-terminal His-tagged hUBA1
T2 sequence (P22314 2-1058): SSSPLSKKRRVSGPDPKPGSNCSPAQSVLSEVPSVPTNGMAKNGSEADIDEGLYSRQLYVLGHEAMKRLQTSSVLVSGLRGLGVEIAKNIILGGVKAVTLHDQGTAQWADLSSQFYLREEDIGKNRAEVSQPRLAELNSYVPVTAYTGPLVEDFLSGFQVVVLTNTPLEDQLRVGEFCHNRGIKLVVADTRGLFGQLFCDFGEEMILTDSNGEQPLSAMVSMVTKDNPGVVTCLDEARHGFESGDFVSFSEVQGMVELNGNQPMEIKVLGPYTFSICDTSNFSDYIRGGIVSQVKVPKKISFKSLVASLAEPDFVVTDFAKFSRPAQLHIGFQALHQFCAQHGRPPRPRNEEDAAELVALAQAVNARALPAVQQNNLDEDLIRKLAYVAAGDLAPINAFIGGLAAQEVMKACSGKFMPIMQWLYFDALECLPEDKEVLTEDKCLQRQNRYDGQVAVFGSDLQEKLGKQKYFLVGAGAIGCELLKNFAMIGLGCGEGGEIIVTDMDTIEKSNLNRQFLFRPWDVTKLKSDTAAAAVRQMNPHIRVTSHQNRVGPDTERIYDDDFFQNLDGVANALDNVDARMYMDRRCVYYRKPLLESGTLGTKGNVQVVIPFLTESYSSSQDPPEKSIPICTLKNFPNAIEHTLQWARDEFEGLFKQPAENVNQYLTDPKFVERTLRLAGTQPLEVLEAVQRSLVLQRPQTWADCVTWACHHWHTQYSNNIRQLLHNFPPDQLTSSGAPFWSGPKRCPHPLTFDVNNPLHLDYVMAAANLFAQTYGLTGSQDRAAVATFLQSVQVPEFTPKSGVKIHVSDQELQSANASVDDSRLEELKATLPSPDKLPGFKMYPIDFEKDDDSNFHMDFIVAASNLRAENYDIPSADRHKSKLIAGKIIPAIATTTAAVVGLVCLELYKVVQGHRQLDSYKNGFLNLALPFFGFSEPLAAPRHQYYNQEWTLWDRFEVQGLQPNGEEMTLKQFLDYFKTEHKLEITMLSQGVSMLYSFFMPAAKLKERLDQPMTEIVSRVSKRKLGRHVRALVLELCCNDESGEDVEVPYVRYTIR

TbUBA1b [3] = target: T3, TbUBA1b (Trypanosoma brucei, UniProt Q38DE8)
T3 construct: gene Tb09.211.3610; GST fusion cleaved with thrombin
T3 sequence (Q38DE8 1-1214): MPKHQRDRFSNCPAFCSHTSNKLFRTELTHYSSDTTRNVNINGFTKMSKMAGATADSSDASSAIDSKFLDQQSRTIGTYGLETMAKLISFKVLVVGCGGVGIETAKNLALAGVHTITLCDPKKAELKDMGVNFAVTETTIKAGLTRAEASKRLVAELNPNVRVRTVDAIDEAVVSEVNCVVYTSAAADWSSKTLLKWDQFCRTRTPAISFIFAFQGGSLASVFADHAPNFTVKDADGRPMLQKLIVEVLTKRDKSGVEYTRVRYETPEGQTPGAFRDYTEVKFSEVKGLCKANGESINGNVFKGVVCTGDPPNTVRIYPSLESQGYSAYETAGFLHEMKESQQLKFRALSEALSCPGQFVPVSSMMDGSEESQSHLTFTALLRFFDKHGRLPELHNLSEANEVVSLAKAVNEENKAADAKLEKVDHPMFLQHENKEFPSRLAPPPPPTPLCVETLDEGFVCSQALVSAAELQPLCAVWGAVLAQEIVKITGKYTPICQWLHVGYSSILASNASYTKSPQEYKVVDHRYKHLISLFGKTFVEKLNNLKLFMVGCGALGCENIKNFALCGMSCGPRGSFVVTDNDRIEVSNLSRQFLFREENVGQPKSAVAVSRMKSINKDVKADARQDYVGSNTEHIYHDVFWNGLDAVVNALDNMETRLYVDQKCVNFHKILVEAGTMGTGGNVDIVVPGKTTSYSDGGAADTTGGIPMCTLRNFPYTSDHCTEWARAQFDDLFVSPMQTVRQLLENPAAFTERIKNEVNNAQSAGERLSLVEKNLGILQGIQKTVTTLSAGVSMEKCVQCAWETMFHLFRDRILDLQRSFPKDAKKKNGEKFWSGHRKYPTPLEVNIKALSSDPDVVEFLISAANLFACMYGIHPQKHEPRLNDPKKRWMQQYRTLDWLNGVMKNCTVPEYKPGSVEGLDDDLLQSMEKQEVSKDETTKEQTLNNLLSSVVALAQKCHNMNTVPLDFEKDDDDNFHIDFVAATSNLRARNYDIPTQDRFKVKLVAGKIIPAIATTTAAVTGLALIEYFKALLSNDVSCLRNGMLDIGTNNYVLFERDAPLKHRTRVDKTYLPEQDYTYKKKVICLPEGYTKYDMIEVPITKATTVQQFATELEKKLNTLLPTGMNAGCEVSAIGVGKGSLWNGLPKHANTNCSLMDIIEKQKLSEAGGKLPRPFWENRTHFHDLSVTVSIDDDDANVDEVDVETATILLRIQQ

TbUBA1a [4] = target: T4, TbUBA1a (Trypanosoma brucei, UniProt Q57XC5, E559D/Q534P/S560A)
T4 construct: gene Tb08.26A17.680; GST fusion cleaved with HRV 3C; with ubiquitin

TbUBA1b [5] = target: T5, TbUBA1b (Trypanosoma brucei, UniProt Q38DE8, E656D/T657A)
T5 construct: gene Tb09.211.3610; GST fusion cleaved with thrombin; with ubiquitin

TbUBA1b [6] = target: T6, TbUBA1b (Trypanosoma brucei, UniProt Q38DE8)
T6 construct: gene Tb09.211.3610; GST fusion cleaved with thrombin; with ubiquitin

T4 sequence (Q57XC5 whole entry E559D/Q534P/S560A, the tested form may be a part): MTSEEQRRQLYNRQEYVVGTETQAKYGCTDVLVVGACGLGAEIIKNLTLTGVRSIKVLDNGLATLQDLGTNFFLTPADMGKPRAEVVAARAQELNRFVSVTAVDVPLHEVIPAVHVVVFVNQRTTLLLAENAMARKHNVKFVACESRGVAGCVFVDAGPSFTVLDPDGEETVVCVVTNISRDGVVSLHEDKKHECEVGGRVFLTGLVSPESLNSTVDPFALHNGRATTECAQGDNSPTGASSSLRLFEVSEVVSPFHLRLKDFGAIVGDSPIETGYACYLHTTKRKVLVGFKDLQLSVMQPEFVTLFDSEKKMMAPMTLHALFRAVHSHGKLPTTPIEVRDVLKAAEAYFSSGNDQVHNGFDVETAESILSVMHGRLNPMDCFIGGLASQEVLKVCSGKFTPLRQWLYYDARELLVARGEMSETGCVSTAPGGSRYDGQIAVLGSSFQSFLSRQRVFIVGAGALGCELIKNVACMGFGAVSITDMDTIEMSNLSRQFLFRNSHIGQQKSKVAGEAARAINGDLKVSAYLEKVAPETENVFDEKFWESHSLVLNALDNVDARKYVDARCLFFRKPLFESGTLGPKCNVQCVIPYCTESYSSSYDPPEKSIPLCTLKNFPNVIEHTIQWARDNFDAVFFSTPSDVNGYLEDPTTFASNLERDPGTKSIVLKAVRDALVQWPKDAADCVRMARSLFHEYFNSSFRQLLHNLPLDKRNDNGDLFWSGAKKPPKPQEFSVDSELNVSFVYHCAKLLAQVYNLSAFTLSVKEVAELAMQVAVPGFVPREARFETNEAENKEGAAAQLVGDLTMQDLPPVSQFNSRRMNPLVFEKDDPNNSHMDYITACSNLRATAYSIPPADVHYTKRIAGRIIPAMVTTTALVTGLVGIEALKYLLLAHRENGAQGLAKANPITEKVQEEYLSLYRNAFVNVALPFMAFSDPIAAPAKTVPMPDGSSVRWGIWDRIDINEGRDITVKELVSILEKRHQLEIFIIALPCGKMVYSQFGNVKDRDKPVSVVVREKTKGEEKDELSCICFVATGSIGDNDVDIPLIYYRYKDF
T1 sequence (Q57XC5 1-1055): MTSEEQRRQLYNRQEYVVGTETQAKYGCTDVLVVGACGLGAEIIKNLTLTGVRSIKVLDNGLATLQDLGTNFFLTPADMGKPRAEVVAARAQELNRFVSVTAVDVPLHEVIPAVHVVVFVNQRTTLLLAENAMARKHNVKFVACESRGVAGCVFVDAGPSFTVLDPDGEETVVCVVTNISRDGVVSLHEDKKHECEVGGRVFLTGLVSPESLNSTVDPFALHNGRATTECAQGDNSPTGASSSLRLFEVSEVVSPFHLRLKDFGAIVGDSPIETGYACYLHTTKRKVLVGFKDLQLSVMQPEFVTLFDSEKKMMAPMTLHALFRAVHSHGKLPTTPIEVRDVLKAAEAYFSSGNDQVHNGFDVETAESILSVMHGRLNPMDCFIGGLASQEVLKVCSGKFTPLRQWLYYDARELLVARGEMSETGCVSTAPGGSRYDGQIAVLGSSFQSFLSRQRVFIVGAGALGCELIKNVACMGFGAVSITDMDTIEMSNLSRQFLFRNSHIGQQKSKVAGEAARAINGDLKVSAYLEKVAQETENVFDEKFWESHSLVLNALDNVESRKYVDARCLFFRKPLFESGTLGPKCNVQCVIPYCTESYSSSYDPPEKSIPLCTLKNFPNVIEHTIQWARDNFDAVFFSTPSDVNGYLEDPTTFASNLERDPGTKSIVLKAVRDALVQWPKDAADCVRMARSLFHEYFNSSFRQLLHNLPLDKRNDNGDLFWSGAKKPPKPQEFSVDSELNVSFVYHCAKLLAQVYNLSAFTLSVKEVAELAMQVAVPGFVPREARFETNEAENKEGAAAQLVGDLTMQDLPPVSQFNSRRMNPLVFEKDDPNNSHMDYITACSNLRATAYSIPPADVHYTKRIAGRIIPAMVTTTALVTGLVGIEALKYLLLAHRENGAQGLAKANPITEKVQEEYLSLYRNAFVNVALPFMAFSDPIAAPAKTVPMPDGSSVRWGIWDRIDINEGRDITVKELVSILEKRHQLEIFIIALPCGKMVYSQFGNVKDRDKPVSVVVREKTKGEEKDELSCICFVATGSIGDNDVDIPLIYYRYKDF

CCOC(=O)c1ccc(N2NC(=O)C(=Cc3ccc([N+](=O)[O-])o3)C2=O)cc1 [PYR-41]
E1-E2 transthioesterification assay (UbcH5a, Coomassie gel), recombinant purifie (TbUBA1a [1]): the TbUBA1s were slightly (~two-fold) more sensitive to PYR-41 than hUBA1
E1-E2 transthioesterification assay (UbcH5a, Coomassie gel), recombinant purifie [2]: we observed very little difference between inhibition of human and the T. brucei UBA1s (Fig. 3C)
E1-E2 transthioesterification assay (UbcH5a, Coomassie gel), recombinant purifie (TbUBA1b [3]): the TbUBA1s were slightly (~two-fold) more sensitive to PYR-41 than hUBA1

NS(=O)(=O)OC[C@H]1C[C@@H](Nc2ccnc3cc(-c4cccc(SC(F)(F)F)c4)nn23)[C@H](O)[C@@H]1O [TAK-243]
IC50 (TbUBA1a [4]): 12 µM
E1-E2 transthioesterification assay (UbcH5a, Coomassie gel), recombinant purifie (TbUBA1b [5]): The increase in inhibition of the double mutant E656D, T657A was almost as large as that of the triple mutant
IC50 (TbUBA1b [6]): 159 µM
